Test results as given in publication PMC4058118, “Impact of Wines and Wine Constituents on Cyclooxygenase-1, Cyclooxygenase-2, and 5-Lipoxygenase Catalytic Activity” (Mediators of Inflammation, 2014).
Like-named read-outs stand apart in the source and are kept apart here. Each block holds one compound with its values, some of them ahead of it.

Key:
[1] = molecular target: T1, COX-1 from ram seminal vesicles (Ovis aries, UniProt P05979); assay: COX-1 assay (PGE2 formation, ELISA); type: biochemical
T1 construct: COX-1 from ram seminal vesicles; purchased Sigma-Aldrich (Czech Republic); host or cells: ram seminal vesicles (tissue-derived enzyme)
T1 sequence (P05979 25-600): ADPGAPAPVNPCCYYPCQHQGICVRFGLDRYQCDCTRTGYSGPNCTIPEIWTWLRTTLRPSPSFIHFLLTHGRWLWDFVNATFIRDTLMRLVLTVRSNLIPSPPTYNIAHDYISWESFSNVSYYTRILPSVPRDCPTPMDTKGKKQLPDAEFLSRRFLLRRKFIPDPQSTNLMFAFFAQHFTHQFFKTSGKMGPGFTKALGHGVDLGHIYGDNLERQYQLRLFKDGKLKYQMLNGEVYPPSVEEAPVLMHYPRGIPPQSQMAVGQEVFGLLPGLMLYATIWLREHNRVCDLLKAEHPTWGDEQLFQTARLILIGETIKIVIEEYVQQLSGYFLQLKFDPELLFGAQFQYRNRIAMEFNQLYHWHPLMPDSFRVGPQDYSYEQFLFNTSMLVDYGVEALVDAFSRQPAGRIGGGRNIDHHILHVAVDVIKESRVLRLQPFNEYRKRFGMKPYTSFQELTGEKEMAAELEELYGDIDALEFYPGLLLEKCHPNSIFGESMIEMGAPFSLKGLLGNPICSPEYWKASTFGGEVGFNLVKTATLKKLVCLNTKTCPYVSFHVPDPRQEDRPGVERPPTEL

[2] = molecular target: T2, human recombinant COX-2 (Homo sapiens, UniProt P35354); assay: COX-2 assay (PGE2 formation, ELISA); type: biochemical; conditions: for IC50: read-out: IC50 COX-2 (dash)
T2 construct: purchased Sigma-Aldrich (Czech Republic)
T2 sequence (P35354 18-604): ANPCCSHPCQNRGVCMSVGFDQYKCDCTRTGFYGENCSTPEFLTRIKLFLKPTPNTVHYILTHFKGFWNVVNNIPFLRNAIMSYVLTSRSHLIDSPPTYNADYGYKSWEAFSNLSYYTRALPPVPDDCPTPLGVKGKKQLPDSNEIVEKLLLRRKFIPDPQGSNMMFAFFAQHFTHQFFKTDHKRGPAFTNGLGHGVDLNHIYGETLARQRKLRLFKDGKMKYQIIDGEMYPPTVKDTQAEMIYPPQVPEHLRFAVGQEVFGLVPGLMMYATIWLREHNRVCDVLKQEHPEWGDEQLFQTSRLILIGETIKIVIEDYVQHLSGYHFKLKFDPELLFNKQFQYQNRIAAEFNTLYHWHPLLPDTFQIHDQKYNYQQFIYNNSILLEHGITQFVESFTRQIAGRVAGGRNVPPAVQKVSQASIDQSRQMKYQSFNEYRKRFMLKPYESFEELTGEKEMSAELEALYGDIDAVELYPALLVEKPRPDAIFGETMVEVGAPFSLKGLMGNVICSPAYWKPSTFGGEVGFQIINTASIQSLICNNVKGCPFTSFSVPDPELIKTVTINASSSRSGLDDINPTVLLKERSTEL

[3] = molecular target: T3, 5-LOX (Homo sapiens, UniProt P09917); assay: 5-LOX assay (LTB4 formation in cells from buffy coat, ELISA); type: cell-based
T3 construct: endogenous in cells; host or cells: leukocytes isolated from buffy coat of healthy donors
T3 sequence (P09917 1-674): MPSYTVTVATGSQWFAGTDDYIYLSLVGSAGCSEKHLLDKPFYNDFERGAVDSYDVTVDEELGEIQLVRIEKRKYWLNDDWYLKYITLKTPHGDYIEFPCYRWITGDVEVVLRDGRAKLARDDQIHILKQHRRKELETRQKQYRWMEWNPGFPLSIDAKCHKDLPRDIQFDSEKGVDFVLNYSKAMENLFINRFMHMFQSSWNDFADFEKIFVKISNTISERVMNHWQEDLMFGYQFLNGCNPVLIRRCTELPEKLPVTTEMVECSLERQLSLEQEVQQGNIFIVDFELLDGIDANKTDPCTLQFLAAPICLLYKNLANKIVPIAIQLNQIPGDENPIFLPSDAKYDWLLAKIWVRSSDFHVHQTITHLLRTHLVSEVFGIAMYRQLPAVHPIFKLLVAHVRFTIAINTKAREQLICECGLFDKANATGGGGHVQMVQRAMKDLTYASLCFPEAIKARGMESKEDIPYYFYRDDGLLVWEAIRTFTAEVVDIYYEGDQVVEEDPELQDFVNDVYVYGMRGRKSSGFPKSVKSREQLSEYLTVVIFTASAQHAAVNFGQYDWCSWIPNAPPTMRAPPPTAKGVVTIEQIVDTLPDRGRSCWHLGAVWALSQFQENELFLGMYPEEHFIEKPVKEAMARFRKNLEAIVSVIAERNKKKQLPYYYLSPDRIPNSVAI

[4] = tested on: COX-1; conditions: cited from earlier work
[5] = tested on: COX-2; conditions: cited from earlier work
[6] = mean ± SD, read-out: IC50 ± SD COX-1
[7] = dash = IC50 > 50 μM, read-out: IC50 COX-1 (dash)
[8] = mean ± SD, read-out: IC50 ± SD 5-LOX

Compound: Oc1cc(O)c2c(c1)O[C@H](c1ccc(O)c(O)c1)[C@@H](O)C2 [(+)-catechin]
- COX-1 inhibitory activity ([1]; 50 μM concentration): inactive
- COX-2 inhibitory activity ([2]; 50 μM concentration): inactive

- IC50 [1, 6]: 43.8 ± 18.8 µM
- IC50 ([3]; read-out: IC50 5-LOX (dash)): > 50 µM
- IC50 [2]: > 50 µM
Compound: O=c1c(O)c(-c2ccc(O)cc2)oc2cc(O)cc(O)c12 [Kaempferol, kaempferol]

- IC50 [1, 7]: > 50 µM
- IC50 [3, 8]: 2.25 ± 1.75 µM
- IC50 [2]: > 50 µM
Compound: O=c1cc(-c2ccc(O)c(O)c2)oc2cc(O)cc(O)c12 [Luteolin, luteolin]

Compound: O=c1c(O)c(-c2cc(O)c(O)c(O)c2)oc2cc(O)cc(O)c12 [Myricetin, myricetin]
- IC50 [1, 7]: > 50 µM
- IC50 [3]: 4.02 ± 2.37 µM
- IC50 [2]: > 50 µM

Compound: Oc1cc(O)cc(/C=C/c2ccc(O)c(O)c2)c1 [Piceatannol, piceatannol]
- IC50 [1]: > 50 µM
- IC50 [3, 8]: 0.76 ± 0.35 µM
- IC50 ([4]; ref 5 (Murias et al.)): 4.71 µM
- inhibition of COX-1 ([4]; ref 38 (Lee et al.)): no inhibition
- IC50 ([4]; ref 39 (Gerhäuser et al.)): 81.4 µM
- IC50 [2]: > 50 µM
- IC50 ([5]; ref 5 (Murias et al.)): 11.3 nM
- inhibition of COX-2 ([5]; ref 38 (Lee et al.)): no inhibition

Compound: O=c1c(O)c(-c2ccc(O)c(O)c2)oc2cc(O)cc(O)c12 [Quercetin, quercetin]
- IC50 [1, 6]: 43.8 µM
- IC50 ([1]; read-out: IC50 COX-1 (dash)): > 50 µM
- IC50 [2]: > 50 µM

Compound: Oc1ccc(/C=C/c2cc(O)cc(O)c2)cc1 [Resveratrol, trans-resveratrol]
- IC50 [1, 6]: 2.27 ± 1.17 µM
- IC50 ([3]; read-out: IC50 5-LOX (dash)): > 50 µM
